US6953813B1, “2-Aminotetralin derivatives for the therapy of glaucoma” (Chiesi Farmaceutici S.p.A., priority 1999, dated 2005)

What was measured:
[1] = test system: New-Zealand albino rabbits; experiment: IOP after repeated administration in rabbits with α-chymotrypsin-increased IOP; type: in vivo, rabbit; conditions: two drops of 5% solution per eye every 6 hours
Experimental: The effectiveness of CHF 1035 after repeated administration was tested in a study versus placebo, in 20 New-Zealand albino rabbits. In order to induce a chronic increase of the IOP, each animal was intraocularly injected with 0.5 mg/day of α-chymotrypsin for five days. Starting from the first day of treatment, two drops of physiological saline containing 5% of the drug were instilled in each eye every 6 hours. The control animals only received physiological saline.
The IOP measurement was performed as described in example 1, before the injection and subsequently every day until the 10th day.
FIG. 2 reports the effect of CHF 1035 on rabbit IOP after α-chymotrypsin injection. Values are reported as mean (SE=1.2-2.6; n=20 per group).

Ocular tolerability = type: in vivo
[2] = test system: normotensive Dutch Belted rabbits; experiment: Eye irritation by extent of eyelid closure after topical eyedrop; type: in vivo, rabbit; conditions: single dose 25 μl of 0.5%, 0.2%, 0.05% and 0.01% solution
Experimental: (§1) The experimental animals used were normotensive Dutch Belted rabbits of either gender (n=6). A single drop (25 μl) of the test solution was instilled unilaterally into the left eye (treated eye). IOP of the rabbits (treated and untreated eyes) was measured at 1 and 0 h before, and at 0.5, 1, 2, 3, 4, 5, 6 and 7 h after topical eyedrop administration. IOP at the time of eyedrop administration (0 h) was used as a baseline value. IOP was measured using a BioRad Pneumatonometer. More detailed description of the IOP measurement procedure can be found in Pharm. Res. 14, 1738-1743, 1997 and Curr. Eye Res. 14, 791-797, 1995. All the studies were set up using a randomized crossover design. At least 72 h of wash-out time was allowed for each rabbit between dosings. The irritation caused by an instilled eyedrop were evaluated by recording the extent of eyelid closure after topical eyedrop administration.

[3] = test system: normotensive Dutch Belted rabbits; experiment: Intraocular pressure (IOP) after single dose in normotensive rabbits; type: in vivo, rabbit
Experimental: Water (pH 4.5, made isotonic with sodium chloride), was selected as vehicle for the IOP-studies.
Five concentrations (0.01, 0.05, 0.2, 0.5 and 1.0% w/v) of CHF 1035 were studied. Brimonidine (0.2% w/v) was used as a positive, and vehicle (water pH 4.5) as a negative control.
as §1

[4] = topical single dose, normotensive rabbits

In the case of `CNC1CCc2c(ccc(OC(=O)C(C)C)c2OC(=O)C(C)C)C1` (racemic) [CHF 1035, (±)-(R,S)-5,6-diisobutyryloxy-2-methylaminotetralin], the “tolerability during the whole cycle of treatment” value [1] is reported as “well tolerated during the whole cycle of treatment and induced no eye irritation and/or discomfort”, the “IOP after α-chymotrypsin injection versus placebo” value ([1]; up to 10th day) is reported as “significantly lower IOP than animals treated with placebo” and the “concentration up to which well tolerated (no redness, blinking or other side effects)” value (Ocular tolerability) is reported as “up to 5%”. For the same compound, the “eye irritation (eyelid closure)” value [2] was “no eyelid closure was observed”, the “duration of action compared with brimonidine” value ([3]; normotensive rabbits) was “longer duration of action than brimonidine” and the “effectiveness in decreasing IOP compared with brimonidine” value ([3]; normotensive rabbits) was “more effective in decreasing IOP than brimonidine”. For the same compound, the onset of action ([3]; normotensive rabbits) was “late onset of action”, the “IOP decrease in the untreated eye” value [3, 4] was “no significant IOP decrease is observed in the untreated eye” and the “effect on IOP in the treated eye” value [3, 4] was “decreases significantly the IOP in the treated eye”. For the same compound, the “IOP changes (mean ± SEM) in the treated eye” value (from here on “IOP changes (mean ± SEM)”) ([3]; 0.01% w/v, 0 min) was 0.0 ± 0.0 mmHg, the “IOP changes (mean ± SEM)” value ([3]; 0.01% w/v, 30 min) was −1.9 ± 0.9 mmHg and the “IOP changes (mean ± SEM)” value ([3]; 0.01% w/v, 60 min) was −4.2 ± 1.1 mmHg. The “IOP changes (mean ± SEM)” value ([3]; 0.01% w/v, 120 min) was −5.3 ± 0.7 mmHg, the “IOP changes (mean ± SEM)” value ([3]; 0.01% w/v, 180 min) was −5.0 ± 1.0 mmHg and the “IOP changes (mean ± SEM)” value ([3]; 0.01% w/v, 240 min) was −4.5 ± 1.3 mmHg. For the same compound, the “IOP changes (mean ± SEM)” value ([3]; 0.01% w/v, 300 min) was −4.3 ± 0.9 mmHg, the “IOP changes (mean ± SEM)” value ([3]; 0.01% w/v, 360 min) was −2.6 ± 0.6 mmHg and the “IOP changes (mean ± SEM)” value ([3]; 0.01% w/v, 420 min) was −1.3 ± 0.8 mmHg. For the same compound, the “IOP changes (mean ± SEM)” value ([3]; 0.05% w/v, 0 min) was 0.0 ± 0.0 mmHg, the “IOP changes (mean ± SEM)” value ([3]; 0.05% w/v, 30 min) was −0.4 ± 0.5 mmHg and the “IOP changes (mean ± SEM)” value ([3]; 0.05% w/v, 60 min) was −3.3 ± 0.4 mmHg. The “IOP changes (mean ± SEM)” value ([3]; 0.05% w/v, 120 min) was −6.5 ± 0.9 mmHg, the “IOP changes (mean ± SEM)” value ([3]; 0.05% w/v, 180 min) was −6.3 ± 0.9 mmHg and the “IOP changes (mean ± SEM)” value ([3]; 0.05% w/v, 240 min) was −6.7 ± 0.8 mmHg. The “IOP changes (mean ± SEM)” value ([3]; 0.05% w/v, 300 min) was −6.4 ± 0.8 mmHg, the “IOP changes (mean ± SEM)” value ([3]; 0.05% w/v, 360 min) was −5.5 ± 0.7 mmHg and the “IOP changes (mean ± SEM)” value ([3]; 0.05% w/v, 420 min) was −4.3 ± 0.5 mmHg. The “IOP changes (mean ± SEM)” value ([3]; 0.2% w/v, 0 min) was 0.0 ± 0.0 mmHg, the “IOP changes (mean ± SEM)” value ([3]; 0.2% w/v, 30 min) was 0.8 ± 0.9 mmHg and the “IOP changes (mean ± SEM)” value ([3]; 0.2% w/v, 60 min) was −0.4 ± 1.1 mmHg. The “IOP changes (mean ± SEM)” value ([3]; 0.2% w/v, 120 min) was −2.1 ± 0.7 mmHg, the “IOP changes (mean ± SEM)” value ([3]; 0.2% w/v, 180 min) was −6.0 ± 0.9 mmHg and the “IOP changes (mean ± SEM)” value ([3]; 0.2% w/v, 240 min) was −6.3 ± 1.0 mmHg. The “IOP changes (mean ± SEM)” value ([3]; 0.2% w/v, 300 min) was −7.6 ± 1.5 mmHg, the “IOP changes (mean ± SEM)” value ([3]; 0.2% w/v, 360 min) was −6.9 ± 1.0 mmHg and the “IOP changes (mean ± SEM)” value ([3]; 0.2% w/v, 420 min) was −5.7 ± 1.1 mmHg. For the same compound, the “IOP changes (mean ± SEM)” value ([3]; 0.5% w/v, 0 min) was 0.0 ± 0.0 mmHg, the “IOP changes (mean ± SEM)” value ([3]; 0.5% w/v, 30 min) was 1.8 ± 0.6 mmHg and the “IOP changes (mean ± SEM)” value ([3]; 0.5% w/v, 60 min) was 1.2 ± 0.7 mmHg. The “IOP changes (mean ± SEM)” value ([3]; 0.5% w/v, 120 min) was 0.1 ± 0.7 mmHg, the “IOP changes (mean ± SEM)” value ([3]; 0.5% w/v, 180 min) was −5.0 ± 1.2 mmHg and the “IOP changes (mean ± SEM)” value ([3]; 0.5% w/v, 240 min) was −5.6 ± 0.6 mmHg. For the same compound, the “IOP changes (mean ± SEM)” value ([3]; 0.5% w/v, 300 min) was −7.9 ± 0.9 mmHg, the “IOP changes (mean ± SEM)” value ([3]; 0.5% w/v, 360 min) was −6.9 ± 0.8 mmHg and the “IOP changes (mean ± SEM)” value ([3]; 0.5% w/v, 420 min) was −7.0 ± 0.8 mmHg. The “IOP changes (mean ± SEM)” value ([3]; 1.0% w/v, 0 min) was 0.0 ± 0.0 mmHg, the “IOP changes (mean ± SEM)” value ([3]; 1.0% w/v, 30 min) was 1.3 ± 0.9 mmHg and the “IOP changes (mean ± SEM)” value ([3]; 1.0% w/v, 60 min) was 0.4 ± 1.0 mmHg. For the same compound, the “IOP changes (mean ± SEM)” value ([3]; 1.0% w/v, 120 min) was 0.1 ± 0.9 mmHg and the “IOP changes (mean ± SEM)” value ([3]; 1.0% w/v, 180 min) was −3.2 ± 1.8 mmHg.
